From ChEMBL document CHEMBL1821658, “Synthesis, antimicrobial evaluation and QSAR analysis of novel nalidixic acid based 1,2,4-triazole derivatives” (2011)
Values after ≈ are worked out from the molar mass of the structure shown.

Experiments:
Format in all cases: functional
Bacillus subtilis = experiment: Antibacterial activity against Bacillus subtilis ATCC 12711 after 24 hrs by broth micro dilution assay; conditions: ATCC 12711, 24 h
Aspergillus niger = experiment: Antifungal activity against Aspergillus niger by food poison technique; conditions: read-out: ED50 (the source's name)
Pseudomonas aeruginosa = experiment: Antibacterial activity against Pseudomonas aeruginosa ATCC 9027 after 24 hrs by broth micro dilution assay; conditions: ATCC 9027, 24 h
Escherichia coli = experiment: Antibacterial activity against Escherichia coli ATCC 8739 after 24 hrs by broth micro dilution assay; conditions: ATCC 8739, 24 h
Fusarium oxysporum = experiment: Antifungal activity against Fusarium oxysporum by food poison technique; conditions: read-out: ED50 (the source's name)
Staphylococcus aureus = experiment: Antibacterial activity against Staphylococcus aureus ATCC 2937 after 24 hrs by broth micro dilution assay; conditions: ATCC 2937, 24 h
Klebsiella pneumoniae = experiment: Antibacterial activity against Klebsiella pneumoniae ATCC 31488 after 24 hrs by broth micro dilution assay; conditions: ATCC 31488, 24 h

Row | SMILES | MIC90 (Bacillus subtilis) | EC50 (Aspergillus niger) | MIC90 (Pseudomonas aeruginosa) | MIC90 (Escherichia coli) | EC50 (Fusarium oxysporum) | MIC90 (Staphylococcus aureus) | MIC90 (Klebsiella pneumoniae)
1 | CCn1cc(-c2nnc(S)n2N)c(=O)c2ccc(C)nc21 | 63 µg/mL (≈ 208 µM) | 567 µg/mL (≈ 1880 µM) | 63 µg/mL (≈ 208 µM) | 125 µg/mL (≈ 413 µM) | 382 µg/mL (≈ 1260 µM) | 63 µg/mL (≈ 208 µM) | 63 µg/mL (≈ 208 µM)
2 | CCn1cc(-c2nnc(S)n2NC(=O)c2ccccc2)c(=O)c2ccc(C)nc21 | 63 µg/mL (≈ 155 µM) | 88.5 µg/mL (≈ 218 µM) | 63 µg/mL (≈ 155 µM) | 63 µg/mL (≈ 155 µM) | 110 µg/mL (≈ 270 µM) | 63 µg/mL (≈ 155 µM) | 63 µg/mL (≈ 155 µM)
3 | CCn1cc(-c2nnc(S)n2/N=C/c2ccc(N(C)C)cc2)c(=O)c2ccc(C)nc21 | 16 µg/mL (≈ 36.9 µM) | 101 µg/mL (≈ 233 µM) | 16 µg/mL (≈ 36.9 µM) | 63 µg/mL (≈ 145 µM) | 104 µg/mL (≈ 239 µM) | 125 µg/mL (≈ 288 µM) | 63 µg/mL (≈ 145 µM)
4 | CCn1cc(-c2nnc(S)n2/N=C/c2ccc(C(C)(C)C)cc2)c(=O)c2ccc(C)nc21 | 31 µg/mL (≈ 69.4 µM) | 134 µg/mL (≈ 299 µM) | 63 µg/mL (≈ 141 µM) | 63 µg/mL (≈ 141 µM) | 117 µg/mL (≈ 262 µM) | 125 µg/mL (≈ 280 µM) | 63 µg/mL (≈ 141 µM)
5 | O=C(O)c1cn(C2CC2)c2cc(N3CCNCC3)c(F)cc2c1=O [CIPROFLOXACIN] | 12.5 µg/mL (≈ 37.7 µM) | – | 1.25 µg/mL (≈ 3.77 µM) | 12.5 µg/mL (≈ 37.7 µM) | – | 10 µg/mL (≈ 30.2 µM) | 2.5 µg/mL (≈ 7.54 µM)
6 | CCn1cc(-c2nnc(S)n2/N=C/c2ccc(Br)cc2)c(=O)c2ccc(C)nc21 | 250 µg/mL (≈ 533 µM) | 144 µg/mL (≈ 306 µM) | 62 µg/mL (≈ 132 µM) | 250 µg/mL (≈ 533 µM) | 107 µg/mL (≈ 227 µM) | 125 µg/mL (≈ 266 µM) | 250 µg/mL (≈ 533 µM)
7 | CCn1cc(-c2nnc3sc(=O)c(=O)[nH]n23)c(=O)c2ccc(C)nc21 | 125 µg/mL (≈ 351 µM) | 348 µg/mL (≈ 975 µM) | 125 µg/mL (≈ 351 µM) | 125 µg/mL (≈ 351 µM) | 164 µg/mL (≈ 461 µM) | 250 µg/mL (≈ 702 µM) | 63 µg/mL (≈ 177 µM)
8 | CCn1cc(-c2nnc(S)n2/N=C/c2ccc(SC)cc2)c(=O)c2ccc(C)nc21 | 125 µg/mL (≈ 286 µM) | 251 µg/mL (≈ 574 µM) | 63 µg/mL (≈ 144 µM) | 250 µg/mL (≈ 573 µM) | 104 µg/mL (≈ 239 µM) | 250 µg/mL (≈ 573 µM) | 63 µg/mL (≈ 144 µM)
9 | CCn1cc(-c2nnc(S)n2NC(C)=O)c(=O)c2ccc(C)nc21 | 63 µg/mL (≈ 183 µM) | 111 µg/mL (≈ 322 µM) | 250 µg/mL (≈ 726 µM) | 63 µg/mL (≈ 183 µM) | 166 µg/mL (≈ 481 µM) | 63 µg/mL (≈ 183 µM) | 31 µg/mL (≈ 90 µM)
10 | CN[C@@H]1[C@H](O[C@H]2[C@H](O[C@H]3[C@H](O)[C@@H](O)[C@H](N=C(N)N)[C@@H](O)[C@@H]3N=C(N)N)O[C@@H](C)[C@]2(O)C=O)O[C@@H](CO)[C@H](O)[C@H]1O [STREPTOMYCIN] | 5 µg/mL (≈ 8.6 µM) | – | 4 µg/mL (≈ 6.88 µM) | 13 µg/mL (≈ 22.4 µM) | – | 15 µg/mL (≈ 25.8 µM) | 2 µg/mL (≈ 3.44 µM)
11 | CCn1cc(-c2nnc(S)n2/N=C/c2ccc(C#N)cc2)c(=O)c2ccc(C)nc21 | 63 µg/mL (≈ 152 µM) | 156 µg/mL (≈ 376 µM) | 63 µg/mL (≈ 152 µM) | 125 µg/mL (≈ 301 µM) | 177 µg/mL (≈ 426 µM) | 63 µg/mL (≈ 152 µM) | 63 µg/mL (≈ 152 µM)
12 | CCn1cc(-c2nnc3sc(-c4ccccc4)nn23)c(=O)c2ccc(C)nc21 | 125 µg/mL (≈ 322 µM) | 79.6 µg/mL (≈ 205 µM) | 63 µg/mL (≈ 162 µM) | 63 µg/mL (≈ 162 µM) | 103 µg/mL (≈ 265 µM) | 63 µg/mL (≈ 162 µM) | 125 µg/mL (≈ 322 µM)
13 | CCn1cc(-c2nnc(S)n2/N=C/c2ccc([N+](=O)[O-])cc2)c(=O)c2ccc(C)nc21 | 125 µg/mL (≈ 287 µM) | 149 µg/mL (≈ 342 µM) | 63 µg/mL (≈ 145 µM) | 125 µg/mL (≈ 287 µM) | 100 µg/mL (≈ 230 µM) | 125 µg/mL (≈ 287 µM) | 63 µg/mL (≈ 145 µM)
14 | CCn1cc(-c2nnc(S)n2/N=C/c2ccc(Cl)cc2)c(=O)c2ccc(C)nc21 | 16 µg/mL (≈ 37.7 µM) | 120 µg/mL (≈ 282 µM) | 16 µg/mL (≈ 37.7 µM) | 250 µg/mL (≈ 588 µM) | 79.5 µg/mL (≈ 187 µM) | 125 µg/mL (≈ 294 µM) | 250 µg/mL (≈ 588 µM)
15 | CCn1cc(-c2nnc(S)n2/N=C/c2ccc(C(F)(F)F)cc2)c(=O)c2ccc(C)nc21 | 63 µg/mL (≈ 137 µM) | 299 µg/mL (≈ 652 µM) | 63 µg/mL (≈ 137 µM) | 250 µg/mL (≈ 545 µM) | 101 µg/mL (≈ 220 µM) | 250 µg/mL (≈ 545 µM) | 125 µg/mL (≈ 273 µM)
16 | CCn1cc(-c2nnc(S)n2/N=C/c2ccccc2)c(=O)c2ccc(C)nc21 | 250 µg/mL (≈ 640 µM) | 77.7 µg/mL (≈ 199 µM) | 16 µg/mL (≈ 41 µM) | 16 µg/mL (≈ 41 µM) | 78.2 µg/mL (≈ 200 µM) | 250 µg/mL (≈ 640 µM) | 16 µg/mL (≈ 41 µM)
17 | CCn1cc(-c2nnc3sc(-c4cccc(Cl)c4)nn23)c(=O)c2ccc(C)nc21 | 31 µg/mL (≈ 73.3 µM) | 144 µg/mL (≈ 342 µM) | 63 µg/mL (≈ 149 µM) | 63 µg/mL (≈ 149 µM) | 103 µg/mL (≈ 243 µM) | 63 µg/mL (≈ 149 µM) | 63 µg/mL (≈ 149 µM)
18 | CCn1cc(-c2nnc(S)n2/N=C/c2ccc(C)cc2)c(=O)c2ccc(C)nc21 | 125 µg/mL (≈ 309 µM) | 76.6 µg/mL (≈ 189 µM) | 63 µg/mL (≈ 156 µM) | 125 µg/mL (≈ 309 µM) | 205 µg/mL (≈ 507 µM) | 63 µg/mL (≈ 156 µM) | 63 µg/mL (≈ 156 µM)
19 | CCn1cc(-c2nnc3sc(-c4cccc([N+](=O)[O-])c4)nn23)c(=O)c2ccc(C)nc21 | 125 µg/mL (≈ 288 µM) | 71 µg/mL (≈ 164 µM) | 63 µg/mL (≈ 145 µM) | 125 µg/mL (≈ 288 µM) | 148 µg/mL (≈ 342 µM) | 125 µg/mL (≈ 288 µM) | 125 µg/mL (≈ 288 µM)
20 | CCn1cc(-c2nnc(S)n2/N=C/c2cccc([N+](=O)[O-])c2)c(=O)c2ccc(C)nc21 | 125 µg/mL (≈ 287 µM) | 161 µg/mL (≈ 369 µM) | 63 µg/mL (≈ 145 µM) | 125 µg/mL (≈ 287 µM) | 138 µg/mL (≈ 317 µM) | 125 µg/mL (≈ 287 µM) | 250 µg/mL (≈ 574 µM)
21 | CCn1cc(-c2nnc3sc(-c4ccccc4Cl)nn23)c(=O)c2ccc(C)nc21 | 16 µg/mL (≈ 37.8 µM) | 75.5 µg/mL (≈ 178 µM) | 16 µg/mL (≈ 37.8 µM) | 16 µg/mL (≈ 37.8 µM) | 86.6 µg/mL (≈ 205 µM) | 16 µg/mL (≈ 37.8 µM) | 16 µg/mL (≈ 37.8 µM)
22 | CCn1cc(-c2nnc(S)n2/N=C/c2ccc(C(C)C)cc2)c(=O)c2ccc(C)nc21 | 16 µg/mL (≈ 37 µM) | 113 µg/mL (≈ 262 µM) | 16 µg/mL (≈ 37 µM) | 250 µg/mL (≈ 578 µM) | 106 µg/mL (≈ 246 µM) | 63 µg/mL (≈ 146 µM) | 125 µg/mL (≈ 289 µM)
23 | CCn1cc(-c2nnc(S)n2/N=C/c2ccc(OC)cc2)c(=O)c2ccc(C)nc21 | 16 µg/mL (≈ 38.1 µM) | 105 µg/mL (≈ 249 µM) | 16 µg/mL (≈ 38.1 µM) | 250 µg/mL (≈ 595 µM) | 152 µg/mL (≈ 362 µM) | 125 µg/mL (≈ 297 µM) | 31 µg/mL (≈ 73.7 µM)
24 | CCn1cc(-c2nnc(S)n2/N=C/c2cccc(Br)c2)c(=O)c2ccc(C)nc21 | 16 µg/mL (≈ 34.1 µM) | 111 µg/mL (≈ 237 µM) | 16 µg/mL (≈ 34.1 µM) | 125 µg/mL (≈ 266 µM) | 74.1 µg/mL (≈ 158 µM) | 125 µg/mL (≈ 266 µM) | 31 µg/mL (≈ 66 µM)
25 | CCn1cc(-c2nnc(S)[nH]2)c(=O)c2ccc(C)nc21 | 31 µg/mL (≈ 108 µM) | 76 µg/mL (≈ 265 µM) | 125 µg/mL (≈ 435 µM) | 63 µg/mL (≈ 219 µM) | 111 µg/mL (≈ 387 µM) | 63 µg/mL (≈ 219 µM) | 63 µg/mL (≈ 219 µM)
26 | CCc1ccc(/C=N/n2c(S)nnc2-c2cn(CC)c3nc(C)ccc3c2=O)cc1 | 63 µg/mL (≈ 151 µM) | 229 µg/mL (≈ 547 µM) | 63 µg/mL (≈ 151 µM) | 250 µg/mL (≈ 597 µM) | 191 µg/mL (≈ 456 µM) | 63 µg/mL (≈ 151 µM) | 63 µg/mL (≈ 151 µM)
27 | CCn1cc(-c2nnc3sc(S)nn23)c(=O)c2ccc(C)nc21 | 125 µg/mL (≈ 363 µM) | 92.7 µg/mL (≈ 269 µM) | 31 µg/mL (≈ 90 µM) | 63 µg/mL (≈ 183 µM) | 267 µg/mL (≈ 775 µM) | 250 µg/mL (≈ 726 µM) | 63 µg/mL (≈ 183 µM)
28 | CCOc1ccc(/C=N/n2c(S)nnc2-c2cn(CC)c3nc(C)ccc3c2=O)cc1 | 63 µg/mL (≈ 145 µM) | 86.6 µg/mL (≈ 199 µM) | 63 µg/mL (≈ 145 µM) | 125 µg/mL (≈ 288 µM) | 89.3 µg/mL (≈ 206 µM) | 125 µg/mL (≈ 288 µM) | 63 µg/mL (≈ 145 µM)
